Data set [1] in a line: Serum calcium (standard colorimetric method). The class given is in vivo, Male albino Fisher-344 rats. The conditions noted are these: for hypercalcemia or alterations in serum levels: dietary supplementation, serum phosphorus, 25(OH)D3, 1,25(OH)2D3 also named; for Serum Levels Cas+: mean ± S.E.M. The text has this:
(§1) Male albino Fisher-344 rats, initially weighing ~90-100 g, were used in these studies. On arrival, the animals were quarantined for 1 wk and then randomly divided into the following six test groups: groups 1 and 2, standard vitamin D-sufficient diet; groups 3 and 4, standard diet supplemented with RO24-5531 (2.50 nmol/kg of feed); and groups 5 and 6, standard vitamin D-sufficient diet. […] Next, the rats in groups 2,4 and 6 were given subcutaneous injections of azoxymethane (AOM, Sigma Chemical Co., St. Louis, Mo.), 15 mg/kg body wt once a wk for 2 wks, while the rats in groups 1,3 and 5 received AOM-vehicle (saline).
Groups 1 and 2 were then maintained on the standard diet for an additional […]. Groups 3 and 4 were maintained on the RO24-5531 supplemented diets for the initial five wks and then switched to the standard diet without RO24-5531 for an additional 29 wks (initiation arm), whereas groups 5 and 6 were maintained on the standard diet without supplemental RO24-5531 for the initial five wks and then switched to the RO24-5531 supplemented diet for an additional 29 wks (post-initiation arm).
All rats were sacrificed in the non-fasting state after 34 wks on these protocols between 9 a.m. and 11 a.m. and sera obtained for measurement of calcium, phosphate, 25(OH)D3 and 1α,25(OH)2 D3 levels. The rats' colons were removed, opened, washed with normal saline and examined macroscopically for the presence of tumors. Resected tumors were weighed, and were fixed in 10% buffered formalin for microscopic examination. After formalin fixation, tissue specimens were paraffin-embedded, sectioned, and stained with hematoxylin and eosin as described previously (Sitrin et al., 1991), for light microscopic examination. All specimens were evaluated by a pathologist who was unaware of the dietary or AOM treatment history. Macroscopic and microscopic lesions were classified as either benign (adenoma) or malignant (adenocarcinoma).
Serum calcium and phosphorus were measured by standard colorimetric methods (Kessler and Wolfman, Clin. Chem. 10:686-703, 1964). Serum 25(OH)D3 levels were measured by radioimmunoassay, using a kit and procedure supplied by Incstar (Stillwater, Minn.). Serum 1α,25(OH)2 D3 levels were assayed by a non-equilibrium competitive protein-binding assay based on a calf thymus receptor, using a kit and procedure supplied by Incstar, as previously described (Sitrin et al., 1991).
Results are expressed as means ±SE of n determinations. Data were analyzed by Fisher's exact test (two-tailed) or analysis of variance (ANOVA) as appropriate (Snedecor and Cochran, Statistical Methods, 1980). Values of p <0.05 were considered statistically significant.

Data set [2] in a line: Serum 1α,25(OH)2 D3 levels (competitive protein-binding assay, calf thymus receptor). It counts as in vivo, Male albino Fisher-344 rats. The conditions noted are these: all test groups.
Text: as §1, with “(saline). […]” for “(saline).”
All rats were sacrificed in the non-fasting state after 34 wks on these protocols between 9 a.m. and 11 a.m. and sera obtained for measurement of calcium, phosphate, 25(OH)D3 and 1α,25(OH)2 D3 levels. […] All specimens were evaluated by a pathologist who was unaware of the dietary or AOM treatment history. […]
Serum calcium and phosphorus were measured by standard colorimetric methods (Kessler and Wolfman, Clin. Chem. 10:686-703, 1964). Serum 25(OH)D3 levels were measured by radioimmunoassay, using a kit and procedure supplied by Incstar (Stillwater, Minn.). […]
Results are expressed as means ±SE of n determinations. Data were analyzed by Fisher's exact test (two-tailed) or analysis of variance (ANOVA) as appropriate (Snedecor and Cochran, Statistical Methods, 1980). […]

SMILES strings stand for the structures. “Also recorded” adds a separate entry of the source.

In the case of `C=C1/C(=C\C=C2/CCC[C@]3(C)C([C@H](C)CC#CC(O)(C(F)(F)F)C(F)(F)F)=CC[C@@H]23)C[C@@H](O)C[C@@H]1O` [RO24-5531, 26,26,26,27,27,27-hexafluoro-1α,25-dihydroxy-16-ene-23-yne-cholecalciferol], the “hypercalcemia or alterations in serum levels” value in data set [1] is “did not result in hypercalcemia”; in data set [1] (listed as 1α,25-dihydroxy-16-ene-23-yne-26,27-hexafluorocholecalciferol) it was “does not induce hypercalcemia or alterations in the serum levels of phosphorus, 25(OH)D3, or 1,25(OH)2D3; also recorded: did not induce hypercalcemia or alterations in the serum levels of phosphorus, 25(OH)D3 or 1,25(OH)2D3”. Further, the “Serum Levels Cas+” value in data set [1] (group 3: RO24-5531/SD, no AOM, n=10) was 11.3 ± 0.1 mg/dL; in data set [1] (group 4: RO24-5531/SD (initiation arm), AOM, n=6) it was 10.1 ± 0.4 mg/dL; in data set [1] (group 5: SD/RO24-5531, no AOM, n=14), 10.3 ± 0.4 mg/dL; in data set [1] (group 6: SD/RO24-5531 (post-initiation arm), AOM, n=8), 10.1 ± 0.5 mg/dL. For the same molecule, in data set [1] (groups 4 (initiation arm) and 6 (post-initiation arm)), the “effect on serum levels of calcium” value is on record as “significantly altered the serum levels of calcium, phosphorus or 25(OH)D3”. In addition, the “effect on serum 1α,25(OH)2 D3 levels” value in data set [2] was “no differences were observed”.

The record behind these values is patent publication US6040300A, “Method of preventing colon cancer with vitamin D3 analogues” (Arch Development Corporation, priority 1995, dated 2000).
